Numbered stars: 1 amine (or outer) side, 2 acyl side, 3 side chain; on linkers, the order of the positions; unused ones are H or OH. Square brackets hold non-standard residues; d marks the D form. Peptide text beside a SMILES is read from it. X1 = [N-]=[N+]=NCCNCC[C@H](N[*:1])C(=O)[*:2]; Lys(N3) = [N-]=[N+]=NCCCC[C@H](N)C(=O)O
How the values were obtained:
[1] = intrinsic hydrophilicity/hydrophobicity coefficient ΔtR(Gly) by RP-HPLC (procedure of Hodges et al.); type: physicochemical; conditions: RP-HPLC retention of guest-residue peptide versus Gly standard; positive = more hydrophobic than Gly
Method: We then determined the intrinsic hydrophilicity/hydrophobicity coefficients (ΔtR(Gly)) for residue 1, ^N3K, and Lys according to the procedure of Hodges et al. to gain comparative insight into the hydrophilic nature of the new residue. […] Amino acids with side-chains more hydrophobic than Gly have positive ΔtR(Gly) values, and vice-versa.
RP-HPLC was performed with a solvent system of 0.1% TFA in Milli-Q H2O (Standard A) and 0.1% TFA in 9:1 CH3CN/H2O (Standard B). Analytical RPHPLC was performed on an Agilent 1200 series HPLC, using a Vydac 218TP C18 column (250×4.6 mm, 5 μm), with a linear gradient from 0 to 100% B at a rate of 1% B per min, at a flow rate of 0.25 mL/min and a column temperature of 40° C.

[2] = SPAAC ligation kinetics with BCN, second order conditions, NMR; conditions: methanol at 25° C.
Method: The reaction kinetics of amino acid 1 in SPAAC with two strained cyclooctynes, DBCO and BCN, were determined in comparison with ^N3K. First, peptides 12 and 13, which contain residue 1 and ^N3K respectively, were independently ligated to PEG-functionalized DBCO. Rates were determined under pseudo-first order conditions by UV-vis spectroscopy at 308 nm (FIGS. 3A-3C, 7, 8). The calculated second order rate constant for peptide 12 was 0.34 M^−1 s^−1 in HBS buffer, pH 7.4 at 25° C., which is similar to previously reported rate constants for other azides. The ligation rate of peptide 12 is slightly slower than peptide 13 ([…]), which may be due to hydrophobic interactions between the ^N3K side-chain and the aromatic DBCO, facilitating ligation. […] We then determined the reaction rate of Boc-protected amino acid 2 itself with BCN in methanol at 25° C. […]
Solutions of BCN and amino acids were prepared in MeOD. The reaction between BCN and amino acids was measured under second order conditions using NMR. […] The reaction was monitored by ^1H NMR. Concentration of product ([P]) at each time point was determined by the integration of red proton in the product using blue proton as internal standard. The value of k2t was calculated by equation 1. With Prism software, second order rate constants, k2, was calculated by linear regression between k2t and time. […]

[3] = solubility in water by UV-vis spectroscopy before and after centrifugation; type: physicochemical; conditions: 20 mg/mL was the highest concentration tested
Method: Residue 1's ability to enhance solubility was tested via the amphiphilic peptide 16, which contains 7 copies of 1 along with 9 hydrophobic Val residues. Here, we directly measured solubility via UV-vis spectroscopy of aqueous preparations of peptides before and after centrifugation (FIG. 2B). Peptide 16 (FIG. 5) was fully soluble in water at 20 mg/mL, the highest concentration tested, as was its Lys-containing control peptide 18. […] Further, peptides 16 and 18 had nearly identical RP-HPLC chromatograms (FIG. 6) indicating similar hydrophilic character. In contrast, the ^N3K-containing peptide 17 was completely insoluble in water at only 1 mg/mL, showing extensive light scattering before centrifugation and no scattering after, due to sedimentation of aggregates.

[4] = solubility of peptide powder in solvents; type: physicochemical
Source text: Peptide 17: Insoluble powder in water and acetonitrile. It is soluble in Trifluoroethanol.

SMILES: NCCCC[C@H](N)C(=O)O [Lys]
- intrinsic hydrophilicity/hydrophobicity coefficient ΔtR(Gly) [1]: −0.04

SMILES: [N-]=[N+]=NCCNCC[C@H](N)C(=O)O [compound 1]
- intrinsic hydrophilicity/hydrophobicity coefficient ΔtR(Gly) [1]: 1.4

SMILES: CC(C)(C)OC(=O)N(CCN=[N+]=[N-])CC[C@H](NC(=O)OCC1c2ccccc2-c2ccccc21)C(=O)O [compound 2, (S)-2-((((9H-fluoren-9-yl)methoxy)carbonyl)amino)-4-((2-azidoethyl)(tertbutoxycarbonyl)-amino)butanoic acid]
- second order rate constant k2 with BCN [2]: 0.28 M⁻¹ s⁻¹

SMILES: CC(C)[C@H](N)C(=O)N[C@@H](CCNCCN=[N+]=[N-])C(=O)N[C@H](C(=O)N[C@@H](CCNCCN=[N+]=[N-])C(=O)N[C@H](C(=O)N[C@@H](CCNCCN=[N+]=[N-])C(=O)N[C@H](C(=O)N[C@@H](CCNCCN=[N+]=[N-])C(=O)N[C@H](C(=O)N1CCC[C@@H]1C(=O)N1CCC[C@H]1C(=O)N[C@H](C(=O)N[C@@H](CCNCCN=[N+]=[N-])C(=O)N[C@H](C(=O)N[C@@H](CCC(=O)O)C(=O)N[C@H](C(=O)N[C@@H](CCNCCN=[N+]=[N-])C(=O)N[C@H](C(=O)N[C@@H](CCNCCN=[N+]=[N-])C(=O)N[C@H](C(N)=O)C(C)C)C(C)C)C(C)C)C(C)C)[C@@H](C)O)C(C)C)C(C)C)C(C)C)C(C)C [peptide 16, VZVZVZVZV^DPPTZVEVZVZV-NH2] (H-V[X1]V[X1]V[X1]V[X1]V[dP]PT[X1]VEV[X1]V[X1]V-NH2)
- solubility [3]: ≥ 20 mg/mL

SMILES: CC(C)[C@H](N)C(=O)N[C@@H](CCCCN=[N+]=[N-])C(=O)N[C@H](C(=O)N[C@@H](CCCCN=[N+]=[N-])C(=O)N[C@H](C(=O)N[C@@H](CCCCN=[N+]=[N-])C(=O)N[C@H](C(=O)N[C@@H](CCCCN=[N+]=[N-])C(=O)N[C@H](C(=O)N1CCC[C@@H]1C(=O)N1CCC[C@H]1C(=O)N[C@H](C(=O)N[C@@H](CCCCN=[N+]=[N-])C(=O)N[C@H](C(=O)N[C@@H](CCC(=O)O)C(=O)N[C@H](C(=O)N[C@@H](CCCCN=[N+]=[N-])C(=O)N[C@H](C(=O)N[C@@H](CCCCN=[N+]=[N-])C(=O)N[C@H](C(N)=O)C(C)C)C(C)C)C(C)C)C(C)C)[C@@H](C)O)C(C)C)C(C)C)C(C)C)C(C)C [peptide 17] (H-V[Lys(N3)]V[Lys(N3)]V[Lys(N3)]V[Lys(N3)]V[dP]PT[Lys(N3)]VEV[Lys(N3)]V[Lys(N3)]V-NH2)
- solubility [3]: < 1 mg/mL
- solubility in Trifluoroethanol [4]: soluble
- solubility in water and acetonitrile [4]: Insoluble

SMILES: CC(C)[C@H](N)C(=O)N[C@@H](CCCCN)C(=O)N[C@H](C(=O)N[C@@H](CCCCN)C(=O)N[C@H](C(=O)N[C@@H](CCCCN)C(=O)N[C@H](C(=O)N[C@@H](CCCCN)C(=O)N[C@H](C(=O)N1CCC[C@@H]1C(=O)N1CCC[C@H]1C(=O)N[C@H](C(=O)N[C@@H](CCCCN)C(=O)N[C@H](C(=O)N[C@@H](CCC(=O)O)C(=O)N[C@H](C(=O)N[C@@H](CCCCN)C(=O)N[C@H](C(=O)N[C@@H](CCCCN)C(=O)N[C@H](C(N)=O)C(C)C)C(C)C)C(C)C)C(C)C)[C@@H](C)O)C(C)C)C(C)C)C(C)C)C(C)C [peptide 18] (H-VKVKVKVKV[dP]PTKVEVKVKV-NH2; N-terminus assumed)
- solubility [3]: ≥ 20 mg/mL
